For assay [1], the system named is SMMC-7721. Briefly: Cytotoxicity against human SMMC7721 cells after 72 hrs by MTT assay. In kind it is functional, cell-based. Conditions: SMMC-7721, 72 h. Background: Tetrazolium dyes change colour on reduction, which living cells bring about.
For a further assay, the system named is PC-3. The experiment in a line: Cytotoxicity against human PC3 cells after 72 hrs by MTT assay. The class given is functional, cell-based. The following applies: PC-3, 72 h.
In assay [2] the test system is MGC-803. The experiment in a line: Cytotoxicity against human MGC803 cells after 72 hrs by MTT assay. In kind it is functional, cell-based. The following applies: MGC-803, 72 h.
Assay [3] is described as follows: Cytotoxicity against human EC109 cells after 72 hrs by MTT assay. The class given is functional, cell-based. Conditions: ECa-109, 72 h.
For the next assay, the system named is MCF7. Briefly: cells. The following applies: Homo sapiens, MCF7, 72 h.
The test system of assay [4] is SMMC-7721. The experiment in a line: Ratio of 5-fluorouracil IC50 to compound IC50 for human SMMC7721 cells. In kind it is functional.
Assay [5] relates to MGC-803. Briefly: Ratio of 5-fluorouracil IC50 to compound IC50 for human MGC803 cells. In kind it is functional.

Description for MCF7: Cytotoxicity against human MCF7 cells after 72 hrs by MTT assay

Broadly, the IC50 is the concentration needed to halve the response being measured. The low end stands for higher potency, the high end for lower potency. Turning to `CC(=O)O[C@H]1CC[C@@]2(C)C(=CC[C@@H]3[C@@H]2CC[C@]2(C)C(=C(/C#N)C(N)=O)/C(=C/c4ccc(Cl)c(Cl)c4)C[C@@H]32)C1`, the IC50 with SMMC-7721 [1] was determined as 2.55 µM; with PC-3, 8.18 µM; in the assay on MGC-803 [2] it was 3200 nM; in assay [3], 4.37 µM; in the assay with MCF7 it was 2.21 µM.
In the same order, the values of `CC(=O)O[C@H]1CC[C@@]2(C)C(=CC[C@@H]3[C@@H]2CC[C@]2(C)C(=C(/C#N)C(N)=O)/C(=C/c4ccc(Br)cc4)C[C@@H]32)C1` are 16.5 µM, 26.8 µM, 2710 nM, 5.3 µM and 2.95 µM.
Take `C[C@]12CC[C@H](O)CC1=CC[C@@H]1[C@@H]2CC[C@]2(C)C(=C(/C#N)C(N)=O)/C(=C/c3ccccc3F)C[C@@H]12`: in the assay on SMMC-7721 [4], the “Ratio IC50” value is 5. The IC50 with SMMC-7721 [1] worked out at 1.9 µM; with PC-3, 13.3 µM; with MGC-803 [2], 2690 nM; in assay [3], 14.6 µM; in the assay with MCF7, 6.58 µM.
With `C[C@]12CC[C@H](O)CC1=CC[C@@H]1[C@@H]2CC[C@]2(C)C(=C(/C#N)C(N)=O)/C(=C/c3ccccc3Cl)C[C@@H]12`, the IC50 in the assay with SMMC-7721 [1] amounted to 3.63 µM; in the assay with PC-3, 16.9 µM; in the assay with MGC-803 [2], 5130 nM; in assay [3], 13.2 µM; with MCF7 it was 5.34 µM.
With `CC(=O)O[C@H]1CC[C@@]2(C)C(=CC[C@@H]3[C@@H]2CC[C@]2(C)C(=C(/C#N)C(N)=O)/C(=C/c4ccc(F)c(F)c4)C[C@@H]32)C1`, the IC50 in the assay with SMMC-7721 [1] stood at 5.66 µM; with PC-3, 8.48 µM; with MGC-803 [2] it was 1560 nM; in assay [3], 3.05 µM; in the assay with MCF7, 4.77 µM.
In the same order, the values of `COc1cccc(/C=C2\C[C@H]3[C@@H]4CC=C5C[C@@H](OC(C)=O)CC[C@]5(C)[C@H]4CC[C@]3(C)\C2=C(\C#N)C(N)=O)c1` are 11.5 µM, 13 µM, 2190 nM, 7.04 µM and 8.36 µM.
Regarding `CC(=O)O[C@H]1CC[C@@]2(C)C(=CC[C@@H]3[C@@H]2CC[C@]2(C)C(=C(/C#N)C(N)=O)/C(=C/c4ccccc4C#N)C[C@@H]32)C1`, 22.4 µM corresponded to half-maximal inhibition with MCF7 (IC50).
In the case of `CC(=O)O[C@H]1CC[C@@]2(C)C(=CC[C@@H]3[C@@H]2CC[C@]2(C)C(=C(/C#N)C(N)=O)/C(=C/c4ccco4)C[C@@H]32)C1`, the “Ratio IC50” value in the assay on MGC-803 [5] worked out at 57. Further, the IC50 with SMMC-7721 [1] came to 22.9 µM; in the assay on PC-3 it was 23.4 µM; with MGC-803 [2] it was 120 nM; in assay [3], 39.4 µM; with MCF7 it was 39.4 µM.
In the case of `COc1cccc(/C=C2\C[C@H]3[C@@H]4CC=C5C[C@@H](O)CC[C@]5(C)[C@H]4CC[C@]3(C)\C2=C(\C#N)C(N)=O)c1`, the IC50 with SMMC-7721 [1] turned out to be 6.09 µM; in the assay with PC-3, 14 µM; in the assay on MGC-803 [2], 3960 nM; in assay [3], 9.27 µM; in the assay with MCF7, 5.57 µM.
On to `CC(=O)O[C@H]1CC[C@@]2(C)C(=CC[C@@H]3[C@@H]2CC[C@]2(C)C(=C(/C#N)C(N)=O)/C(=C/c4ccc(F)cc4)C[C@@H]32)C1`, for which the IC50 was found to be 5.9 µM in the assay on SMMC-7721 [1]; 9.17 µM with PC-3; 3110 nM in the assay on MGC-803 [2]; 4.78 µM in assay [3]; 3.67 µM in the assay with MCF7.
In the same order, the values of `CC(=O)O[C@H]1CC[C@@]2(C)C(=CC[C@@H]3[C@@H]2CC[C@]2(C)C(=C(/C#N)C(N)=O)/C(=C/c4ccccc4)C[C@@H]32)C1` are 5.03 µM, 12.8 µM, 3100 nM, 11.7 µM and 7.47 µM.
In the same order, the values of `CC(=O)O[C@H]1CC[C@@]2(C)C(=CC[C@@H]3[C@@H]2CC[C@]2(C)C(=C(/C#N)C(N)=O)/C(=C/c4ccccc4Cl)C[C@@H]32)C1` are 18.4 µM, 24.3 µM, 580 nM, 11.9 µM and 6.27 µM.
As for `CC(=O)O[C@H]1CC[C@@]2(C)C(=CC[C@@H]3[C@@H]2CC[C@]2(C)C(=C(/C#N)C(N)=O)/C(=C/c4cccs4)C[C@@H]32)C1`, the “Ratio IC50” value in the assay with MGC-803 [5] turned out to be 45. Further, the IC50 in the assay on SMMC-7721 [1] turned out to be 20.4 µM; in the assay on PC-3, 20.4 µM; in the assay with MGC-803 [2], 150 nM; in assay [3], 20.3 µM; in the assay on MCF7 it was 22.8 µM.
`O=c1[nH]cc(F)c(=O)[nH]1` [FLUOROURACIL]: the figures for the IC50 (in the assay on SMMC-7721 [1]; in the assay on PC-3; in assay [3]) were 9.78 µM, 24.8 µM and 10.6 µM, respectively.
In the case of `CC(=O)O[C@H]1CC[C@@]2(C)C(=CC[C@@H]3[C@@H]2CC[C@]2(C)C(=C(/C#N)C(N)=O)/C(=C/c4ccc(Cl)cc4Cl)C[C@@H]32)C1`, the IC50 came out at 5.04 µM in the assay on SMMC-7721 [1]; 24.3 µM in the assay on PC-3; 7380 nM with MGC-803 [2]; 5.24 µM in assay [3]; 3.98 µM with MCF7.
The like results for `CC(=O)O[C@H]1CC[C@@]2(C)C(=CC[C@@H]3[C@@H]2CC[C@]2(C)C(=C(/C#N)C(N)=O)/C(=C/c4ccccc4F)C[C@@H]32)C1` were, in that order, 15.4 µM, 11.4 µM, 2990 nM, 15.6 µM and 4.66 µM.
The like results for `CC(=O)O[C@H]1CC[C@@]2(C)C(=CC[C@@H]3[C@@H]2CC[C@]2(C)C(=C(/C#N)C(N)=O)/C(=C/c4ccc(C)cc4)C[C@@H]32)C1` were, in that order, 18.6 µM, 22.9 µM, 8100 nM, 12 µM and 6.35 µM.
The like results for `CC(=O)O[C@H]1CC[C@@]2(C)C(=CC[C@@H]3[C@@H]2CC[C@]2(C)C(=C(/C#N)C(N)=O)/C(=C/c4cccc(Cl)c4)C[C@@H]32)C1` were, in that order, 7.12 µM, 11.3 µM, 110 nM, 8.97 µM and 8.01 µM.
In the case of `COc1cc(/C=C2\C[C@H]3[C@@H]4CC=C5C[C@@H](OC(C)=O)CC[C@]5(C)[C@H]4CC[C@]3(C)\C2=C(\C#N)C(N)=O)cc(OC)c1OC`, the IC50 in the assay with SMMC-7721 [1] was 2.82 µM; with PC-3 it was 11.7 µM; in the assay on MGC-803 [2] it was 6340 nM; in assay [3], 5.28 µM; in the assay with MCF7, 5.23 µM.
In the same order, the values of `C[C@]12CC[C@H](O)CC1=CC[C@@H]1[C@@H]2CC[C@]2(C)C(=C(/C#N)C(N)=O)/C(=C/c3ccc(F)cc3)C[C@@H]12` are 3.34 µM, 14.6 µM, 5670 nM, 8.69 µM and 5.92 µM.
The like results for `C[C@]12CC[C@H](O)CC1=CC[C@@H]1[C@@H]2CC[C@]2(C)C(=C(/C#N)C(N)=O)/C(=C/c3ccc(Cl)c(Cl)c3)C[C@@H]12` were, in that order, 3.34 µM, 8.84 µM, 5110 nM, 8.61 µM and 2.41 µM.
In the same order, the values of `COc1cc(/C=C2\C[C@H]3[C@@H]4CC=C5C[C@@H](O)CC[C@]5(C)[C@H]4CC[C@]3(C)\C2=C(\C#N)C(N)=O)cc(OC)c1OC` are 7.94 µM, 12.2 µM, 1830 nM, 8.72 µM and 6.54 µM.
On to `CC(=O)O[C@H]1CC[C@@]2(C)C(=CC[C@@H]3[C@@H]2CC[C@]2(C)C(=C(/C#N)C(N)=O)/C(=C/c4ccc(C(C)C)cc4)C[C@@H]32)C1`, for which the concentration for half-maximal inhibition (IC50) in the assay on SMMC-7721 [1] was 9.3 µM; in the assay on PC-3, 13.5 µM; in the assay with MGC-803 [2], 1090 nM; in assay [3], 10 µM; in the assay on MCF7, 15.3 µM.
